Experiments:
Type in all cases: biochemical
porcine pepsin = porcine pepsin (Sus scrofa, UniProt P00791); experiment: Inhibition of pepsin; conditions: Conc. 5.0 × 10^-4 M
Experimental: Pepsin activity was assayed by a procedure substantially similar to that described by Rich, et al., Biochem. Pharmac. 29:2205 (1980). Substrate, […].2 trifluoroacetate, and porcine pepsin were obtained from commercial sources. Assay solutions, in a volume of 2.00 mL, contained 2.0×10^-4 M substrate in 0.040M sodium formate buffer, pH 4.0, and 0.050 mL of inhibitor solutions in dimethylsulfoxide. Assays were initiated by addition of 0.020 mL of pepsin (0.10 mg/mL), and hydrolysis of substrate was monitored by measuring the increase in absorbance at 310 nm on a spectrophotometer.

thermolysin = biological target: T1, thermolysin (Bacillus thermoproteolyticus, UniProt P00800); experiment: Inhibition of thermolysin; conditions: Conc. 5.0 × 10^-4 M
T1 construct: purchased
T1 sequence (P00800 233-548): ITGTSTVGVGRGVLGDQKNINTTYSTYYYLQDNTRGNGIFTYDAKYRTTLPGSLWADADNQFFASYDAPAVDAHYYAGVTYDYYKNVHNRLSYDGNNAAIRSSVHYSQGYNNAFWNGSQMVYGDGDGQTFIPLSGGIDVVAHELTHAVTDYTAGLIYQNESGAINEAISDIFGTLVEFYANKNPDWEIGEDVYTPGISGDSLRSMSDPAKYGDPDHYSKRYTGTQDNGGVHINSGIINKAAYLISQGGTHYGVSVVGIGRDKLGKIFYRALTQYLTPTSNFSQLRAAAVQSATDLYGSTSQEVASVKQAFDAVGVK
Experimental: The metalloenzyme thermolysin was assayed by a procedure substantially similar to that described by Feder et al., Biochemistry 9:2784 (1970). Substrate, furylacryloyl-glycyl-leucinamide, and thermolysin were obtained from commercial sources. Assay solutions consisted of furylacryloyl-glycyl-leucinamide (0.100 mL, 8.0×10^-3 M in N,N-dimethylformamide) and 1.90 mL of 0.50M Tris buffer, pH 7.5, containing 0.10M NaCl and 0.010M CaCl2. Either 0.100 mL of dimethylsulfoxide or 0.100 mL of dimethylsulfoxide containing inhibitor was added and the reaction was initiated by the addition of 0.020 mL of thermolysin (1.0 mg/mL). The rate of hydrolysis was monitored by measuring the decrease in absorbance at 345 nm.

[1] = biological target: Porcine pancreatic elastase (Sus scrofa, UniProt P00772); experiment: Inhibition of pancreatic elastase
Chain of Porcine pancreatic elastase (P00772 27-266): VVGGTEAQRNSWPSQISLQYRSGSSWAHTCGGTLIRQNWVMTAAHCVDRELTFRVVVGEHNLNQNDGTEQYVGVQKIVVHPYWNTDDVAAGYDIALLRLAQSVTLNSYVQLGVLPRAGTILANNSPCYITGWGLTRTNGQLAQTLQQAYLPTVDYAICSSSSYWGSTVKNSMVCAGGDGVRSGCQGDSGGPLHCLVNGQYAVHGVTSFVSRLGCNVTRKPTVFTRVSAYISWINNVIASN
Experimental: Porcine pancreatic elastase (9.8 U/mg.) was obtained from commercial sources. […] Reactions were initiated by addition of 0.5 μg of elastase in 0.020 mL of 0.020M sodium acetate buffer, pH 6.0, and hydrolysis of substrate was monitored spectrophotometrically at 405 nm at 25° C. Assay results are set forth in Table 4, below, expressed as percentages of activity of control mixtures to which no inhibitor was added: […]

neutrophil elastase = biological target: T2, neutrophil elastase (Homo sapiens, UniProt P08246); experiment: Inhibition of neutrophil elastase, additional peptide inhibitors preincubated in phosphate buffer (Table 3); design: Neutrophil elastase was prepared by the procedure described by Baugh. et al; from tissue
T2 sequence (P08246 30-267): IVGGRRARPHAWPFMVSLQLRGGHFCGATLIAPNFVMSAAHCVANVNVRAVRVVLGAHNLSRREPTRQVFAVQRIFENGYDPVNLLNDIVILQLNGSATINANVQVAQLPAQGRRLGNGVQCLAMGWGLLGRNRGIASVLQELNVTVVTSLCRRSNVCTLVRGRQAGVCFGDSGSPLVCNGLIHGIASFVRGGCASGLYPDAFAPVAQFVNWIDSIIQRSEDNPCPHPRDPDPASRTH
Experimental: Additional peptide inhibitors were evaluated by a procedure similar to that described above. Stock solutions of inhibitors (1.00 mM) were prepared in dimethylsulfoxide and compounds were diluted to 0.10 mM with […], pH 7.5, yielding the free boronic acid. After incubation for one hour at about 23°, inhibitors were added to assay solutions (2.00 mL) consisting of […] MeOSuc-Ala-AlaProVal-p-nitroanilide in 0.10M Hepes buffer, pH 7.5, containing 0.50M NaCl. Assays were initiated by addition of 0.50 μg neutrophil elastase. Control assays without inhibitor indicated an initial velocity of 0.0195 min^-1. The value "k" in Table 3, below, is an estimate of the first order rate constant for time-dependent inhibition, as described above for MeOSuc-AlaAlaPro-Boroval-OH (Table 1).

α-chymotrypsin = biological target: T3, α-chymotrypsin (Bos taurus, UniProt P00766); experiment: Titration of α-chymotrypsin
T3 construct: purchased
Experimental: In these experiments, α-chymotrypsin, obtained from commercial sources, was standardized by titration with various concentrations of MeOSuc-AlaAlaPro-Borophe-diethanolamine. In each case, enzyme was incubated with inhibitor for 5 minutes at 23°, in 0.01M Hepes buffer, pH 7.5, containing 0.50M NaCl and 10% dimethylsulfoxide. Aliquots were then removed and assayed for enzyme activity.

Chain of porcine pepsin (P00791 60-385): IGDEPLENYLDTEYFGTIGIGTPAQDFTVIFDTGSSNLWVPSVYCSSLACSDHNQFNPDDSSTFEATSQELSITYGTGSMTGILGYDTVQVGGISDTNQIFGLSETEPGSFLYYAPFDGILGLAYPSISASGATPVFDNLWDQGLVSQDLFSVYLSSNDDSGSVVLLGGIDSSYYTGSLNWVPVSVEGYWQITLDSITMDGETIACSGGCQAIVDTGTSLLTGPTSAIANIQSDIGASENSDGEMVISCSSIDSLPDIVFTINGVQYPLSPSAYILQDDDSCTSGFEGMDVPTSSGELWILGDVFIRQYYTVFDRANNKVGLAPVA

CC(NC(=O)C(C)NC(=O)OC(C)(C)C)B1OCCNCCO1 (stereo not drawn) [Boc--Ala--Boroala--diethanolamine, Boc-Ala-Boroala-diethanolamine]
% Activity (porcine pepsin): 85% | % Activity (thermolysin): 99% | Activity % of Control ([1]; inhibitor 5.0 × 10^5 nM, 1.0 min, time dependency not observed): 67 % of Control

CC(C)C[C@H](NC(=O)CNC(=O)[C@@H](N)Cc1ccccc1)B1OC(C)(C)C(C)(C)O1.O=C(O)C(F)(F)F [H--Phe--Gly--Boroleu--pinacol, H-PheGly-Boroleu-pinacol.trifluoroacetate]
% Activity (porcine pepsin): 69%

CC(C)CC(NC(=O)CNC(=O)OC(C)(C)C)B1OCCNCCO1 (stereo not drawn) [Boc--Gly--Boroleu--diethanolamine, Boc-Gly-Boroleu-diethanolamine]
% Activity (porcine pepsin): 90%

CC(C)C(NC(=O)C(CO)NC(=O)CNC(=O)C(N)Cc1ccccc1)B(O)O (stereo not shown) [H--Phe--Gly--Ser--Boroval--OH]
% Initial Activity (neutrophil elastase; Conc. 1.0 × 10^-6 M): 75%

CC(C)C(NC(=O)C(CCCCNC(=O)OC(C)(C)C)NC(=O)CNC(=O)C(Cc1ccccc1)NC(=O)OCc1ccccc1)B(O)O (stereo not shown) [Z--Phe--Gly--Lys(Boc)--Boroval--OH]
% Initial Activity (neutrophil elastase; Conc. 2.0 × 10^-7 M): 55% | k, first order rate constant for time-dependent inhibition (neutrophil elastase; Conc. 2.0 × 10^-7 M): 0.37 min⁻¹

CC(C)C(NC(=O)C(CCCCN)NC(=O)CNC(=O)C(Cc1ccccc1)NC(=O)OCc1ccccc1)B(O)O (stereo not shown) [Z--Phe--Gly--Lys--Boroval--OH]
% Initial Activity (neutrophil elastase; Conc. 2.5 × 10^-7 M): 67% | k, first order rate constant for time-dependent inhibition (neutrophil elastase; Conc. 2.5 × 10^-7 M): 0.28 min⁻¹

CC(C)CC(NC(=O)CNC(=O)C(Cc1ccccc1)NC(=O)OC(C)(C)C)B1OC(C)(C)C(C)(C)O1 (stereo not shown) [Boc--Phe--Gly--Boroleu--pinacol, Boc-PheGly-Boroleu-pinacol]
% Activity (porcine pepsin): 68%

CCC(C)C(NC(=O)C1CCCN1C(=O)C(C)NC(=O)C(C)NC(=O)CCC(=O)OC)B(O)O (stereo not shown) [MeOSuc--Ala--Ala--Pro--Boroile--OH]
% Initial Activity (neutrophil elastase; Conc. 1.0 × 10^-7 M): 60% | k, first order rate constant for time-dependent inhibition (neutrophil elastase; Conc. 1.0 × 10^-7 M): 0.28 min⁻¹

COC(=O)CCC(=O)N[C@@H](Cc1ccccc1)C(=O)NCC(=O)N[C@@H](CO)C(=O)NC(B(O)O)C(C)C (stereo partly shown) [MeOSuc--Phe--Gly--Ser--Boroval--OH]
% Initial Activity (neutrophil elastase; Conc. 5.0 × 10^-7 M): 78% | k, first order rate constant for time-dependent inhibition (neutrophil elastase; Conc. 5.0 × 10^-7 M): 0.26 min⁻¹

COC(=O)CCC(=O)NC(Cc1ccccc1)C(=O)NCC(=O)NC(CCC(=O)O)C(=O)NC(B(O)O)C(C)C (stereo not shown) [MeOSuc--Phe--Gly--Glu--Boroval--OH]
% Initial Activity (neutrophil elastase; Conc. 1.0 × 10^-6 M): 52% | k, first order rate constant for time-dependent inhibition (neutrophil elastase; Conc. 1.0 × 10^-6 M): 0.18 min⁻¹

CC(C)C(NC(=O)C(Cc1ccccc1)NC(=O)CNC(=O)C(Cc1ccccc1)NC(=O)OCc1ccccc1)B(O)O (stereo not shown) [Z--Phe--Gly--Phe--Boroval--OH]
% Initial Activity (neutrophil elastase; Conc. 2.0 × 10^-7 M): 47% | k, first order rate constant for time-dependent inhibition (neutrophil elastase; Conc. 2.0 × 10^-7 M): 0.18 min⁻¹

CC(C)C(NC(=O)C(CCC(=O)O)NC(=O)CNC(=O)C(N)Cc1ccccc1)B(O)O (stereo not shown) [H--Phe--Gly--Glu--Boroval--OH]
% Initial Activity (neutrophil elastase; Conc. 2.0 × 10^-6 M): 54%

CC(C)C(NC(=O)C(COCc1ccccc1)NC(=O)CNC(=O)C(Cc1ccccc1)NC(=O)OCc1ccccc1)B(O)O (stereo not shown) [Z--Phe--Gly--Ser(OBzl)--Boroval--OH]
% Initial Activity (neutrophil elastase; Conc. 1.25 × 10^-7 M): 66% | k, first order rate constant for time-dependent inhibition (neutrophil elastase; Conc. 1.25 × 10^-7 M): 0.17 min⁻¹

CC(C)CC(NC(=O)CNC(=O)OC(C)(C)C)B1OC(C)(C)C(C)(C)O1 (stereo not drawn) [Boc--Gly--Boroleu--pinacol, Boc-Gly-Boroleu-pinacol]
% Activity (porcine pepsin): 87%

COC(=O)CCC(=O)NC(CCCCNC(=O)OCc1ccccc1)C(=O)NC(C)C(=O)N1CCCC1C(=O)NC(B(O)O)C(C)C (stereo not shown) [MeOSuc--Lys(Z)--Ala--Pro--Boroval--OH, MeOSuc--Lys(Z)--AlaPro--Boroval--OH]
% Initial Activity (neutrophil elastase; Conc. 5.0 × 10^-8 M): 59% | k, first order rate constant for time-dependent inhibition (neutrophil elastase; Conc. 5.0 × 10^-8 M): 0.54 min⁻¹

CC(C)CC(NC(=O)CNC(=O)C(Cc1ccccc1)NC(=O)OCc1ccccc1)C(=O)NC(B(O)O)C(C)C (stereo not shown) [Z--Phe--Gly--Leu--Boroval--OH]
% Initial Activity (neutrophil elastase; Conc. 2.0 × 10^-7 M): 62% | k, first order rate constant for time-dependent inhibition (neutrophil elastase; Conc. 2.0 × 10^-7 M): 0.26 min⁻¹

CC(NC(=O)C(C)NC(=O)OC(C)(C)C)B1OC(C)(C)C(C)(C)O1 (stereo not drawn) [Boc--Ala--Boroala--pinacol, Boc-Ala-Boroala-pinacol]
% Activity (porcine pepsin): 90% | % Activity (thermolysin): 102%

COC(=O)CCC(=O)NC(C)C(=O)NC(C)C(=O)N1CCCC1C(=O)NC(Cc1ccccc1)B1OCCNCCO1 (stereo not shown) [MeOSuc-AlaAlaPro-Borophe-diethanolamine]
% Activity (α-chymotrypsin; α-chymotrypsin 3 μg/mL, inhibitor 25 nM): 68.2% | % Activity (α-chymotrypsin; α-chymotrypsin 3 μg/mL, inhibitor 50 nM): 52.3% | % Activity (α-chymotrypsin; α-chymotrypsin 3 μg/mL, inhibitor 75 nM): 31.8% | % Activity (α-chymotrypsin; α-chymotrypsin 3 μg/mL, inhibitor 100 nM): 18.2% | % Activity (α-chymotrypsin; α-chymotrypsin 15 μg/mL, inhibitor 50 nM): 93.8% | % Activity (α-chymotrypsin; α-chymotrypsin 15 μg/mL, inhibitor 100 nM): 80.4% | % Activity (α-chymotrypsin; α-chymotrypsin 15 μg/mL, inhibitor 200 nM): 65.1% | % Activity (α-chymotrypsin; α-chymotrypsin 15 μg/mL, inhibitor 300 nM): 47.9% | % Activity (α-chymotrypsin; α-chymotrypsin 15 μg/mL, inhibitor 400 nM): 31.6% | % Activity (α-chymotrypsin; α-chymotrypsin 15 μg/mL, inhibitor 500 nM): 15.3%

COC(=O)CCC(=O)N[C@@H](C)C(=O)N[C@@H](C)C(=O)N1CCC[C@H]1C(=O)NC(C)B1OCCNCCO1 (stereo partly shown) [MeOSuc-AlaAlaPro-Boroala-diethanolamine]
capacity for inhibition of pancreatic elastase, crystalline versus amorphous sample ([1]; crystalline sample relative to amorphous sample of Example 9): at least 5 fold

CC(C)CC(NC(=O)CNC(=O)C(Cc1ccccc1)NC(=O)OC(C)(C)C)B1OCCNCCO1 (stereo not shown) [Boc--Phe--Gly--Boroleu--diethanolamine, Boc-PheGly-Boroleu-diethanolamine]
% Activity (porcine pepsin): 71%

CC(C)C(NC(=O)C(CCC(=O)OCc1ccccc1)NC(=O)CNC(=O)C(Cc1ccccc1)NC(=O)OCc1ccccc1)B(O)O (stereo not shown) [Z--Phe--Gly--Glu(OBzl)--Boroval--OH]
% Initial Activity (neutrophil elastase; Conc. 1.0 × 10^-7 M): 61% | k, first order rate constant for time-dependent inhibition (neutrophil elastase; Conc. 1.0 × 10^-7 M): 0.20 min⁻¹

CC(NC(=O)C1CCCN1C(=O)C(Cc1ccccc1)NC(=O)OCc1ccccc1)C(=O)NC(B(O)O)C(C)C (stereo not shown) [Z--Phe--Pro--Ala--Boroval--OH]
% Initial Activity (neutrophil elastase; Conc. 4.0 × 10^-6 M): 51%

CC(C)C(NC(=O)C1CCCN1C(=O)C(Cc1ccccc1)NC(=O)OC(C)(C)C)B(O)O [Boc--D-Phe--Pro--Boroval--OH]
% Initial Activity (neutrophil elastase; Conc. 2.0 × 10^-7 M): 54% | k, first order rate constant for time-dependent inhibition (neutrophil elastase; Conc. 2.0 × 10^-7 M): 0.35 min⁻¹

Reference: patent US4499082A, “α-Aminoboronic acid peptides” (E. I. Du Pont de Nemours and Company, priority 1983, dated 1985)
